# Columns and labels:
# Type in all cases: cell-based
# A431 cells = assay: In vitro tumor cell proliferation assay (Cell Titer-Glo) in A431 cells; conditions: Homo sapiens, A-431, 72 h, A431 human epidermoid carcinoma overexpressing HER1; 72 hours exposure; read-out: IC50, activities in A431 cell lines
# In short: (§1)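 Viability after 72 h drug exposure at 37 °C was read as CellTiter-Glo ATP luminescence, giving IC50. Cells (2.5×10^3/well, RPMI + 10% FBS) were compound-treated one day post-seeding, 0.1% DMSO final: A431 overexpresses HER1, N87 overexpresses HER2 and HER1.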
# H1975 cells = assay: In vitro tumor cell proliferation assay (Cell Titer-Glo) in H1975 cells; conditions: NCI-H1975; H1975 human NSCLC expressing mutant HER1 (L858R,T790M); 72 hours exposure; read-out: IC50, activities in H 1975 cell lines
# In short: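 After 72 h compound exposure at 37° C (top 10 uM down to 64 pM, 0.1% DMSO), viability of EGFR L858R/T790M-mutant H1975 cells was read as ATP luminescence.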
# N87 = assay: In vitro tumor cell proliferation assay (Cell Titer-Glo) in N87 cells; conditions: N87 human gastric carcinoma overexpressing HER2 and HER1; 72 hours exposure; read-out: IC50, activities in N87 cell lines
# In short: as §1
Structure (SMILES),IC50 (A431 cells),IC50 (H1975 cells),IC50 (N87)
"O=C(/C=C/CN1CCOCC1)N1CCc2c(sc3ncnc(Nc4cccc(Br)c4)c23)C1 [Example 193, N-(3-bromophenyl)-7-[(2E)-4-morpholin-4-ylbut-2-enoyl]-5,6,7,8-tetrahydropyrido [4′,3′:4,5]thieno[2,3-d]pyrimidin-4-amine]",1000 to 10000 nM,1000 to 10000 nM,< 200 nM
"CN(C/C=C/C(=O)N1CCc2c(sc3ncnc(Nc4ccc(Cl)c(Cl)c4)c23)C1)C(C)(C)C [Example 199, 7-{(2E)-4-[tert-butyl(methyl)amino]but-2-enoyl}-N-(3,4-dichlorophenyl)-5,6,7,8-tetrahydropyrido [4′,3′:4,5]thieno[2,3-d]pyrimidin-4-amine]",< 200 nM,< 200 nM,< 200 nM
"CCN(C/C=C/C(=O)N1CCc2c(sc3ncnc(Nc4ccc(Cl)c(Cl)c4)c23)C1)C1CCCCC1 [Example 200, 7-{(2E)-4-[cyclohexyl(ethyl)amino]but-2-enoyl}-N-(3,4-dichlorophenyl)-5,6,7,8-tetrahydropyrido [4′,3′:4,5]thieno[2,3-d]pyrimidin-4-amine]",200 to 1000 nM,200 to 1000 nM,< 200 nM
"CCN(C/C=C/C(=O)N1CCc2c(sc3ncnc(Nc4cccc(Br)c4)c23)C1)C1CCCCC1 [Example 201, N-(3-bromophenyl)-7-{(2E)-4-[cyclohexyl(ethyl)amino]but-2-enoyl}-5,6,7,8-tetrahydropyrido [4′,3′:4,5]thieno[2,3-d]pyrimidin-4-amine]",200 to 1000 nM,200 to 1000 nM,< 200 nM
"CN(C/C=C/C(=O)N1CCc2c(sc3ncnc(Nc4cccc(Br)c4)c23)C1)C1CCCCC1 [Example 202, N-(3-bromophenyl)-7-{(2E)-4-[cyclohexyl(methyl)amino]but-2-enoyl}-5,6,7,8-tetrahydropyrido [4′,3′:4,5]thieno[2,3-d]pyrimidin-4-amine]",200 to 1000 nM,200 to 1000 nM,< 200 nM
"CN(C/C=C/C(=O)N1CCc2c(sc3ncnc(Nc4ccc(Cl)c(Cl)c4)c23)C1)C1CCCCC1 [Example 203, 7-{(2E)-4-[cyclohexyl(methyl)amino]but-2-enoyl}-N-(3,4-dichlorophenyl)-5,6,7,8-tetrahydropyrido [4′,3′:4,5]thieno[2,3-d]pyrimidin-4-amine]",200 to 1000 nM,1000 to 10000 nM,< 200 nM
"CCN(C/C=C/C(=O)N1CCc2c(sc3ncnc(Nc4cccc(Br)c4)c23)C1)C(C)C [Example 204, N-(3-bromophenyl)-7-{(2E)-4-[ethyl(isopropyl)amino]but-2-enoyl}-5,6,7,8-tetrahydropyrido [4′,3′:4,5]thieno[2,3-d]pyrimidin-4-amine]",200 to 1000 nM,200 to 1000 nM,< 200 nM
"CCN(C/C=C/C(=O)N1CCc2c(sc3ncnc(Nc4ccc(Cl)c(Cl)c4)c23)C1)C(C)C [Example 205, N-(3,4-dichlorophenyl)-7-{(2E)-4-[ethyl(isopropyl)amino]but-2-enoyl}-5,6,7,8-tetrahydropyrido [4′,3′:4,5]thieno[2,3-d]pyrimidin-4-amine]",< 200 nM,< 200 nM,< 200 nM
"CC1CCCN1C/C=C/C(=O)N1CCc2c(sc3ncnc(Nc4cccc(Br)c4)c23)C1 (stereo not drawn) [Example 207, N-(3-bromophenyl)-7-[(2E)-4-(2-methylpyrrolidin-1-yl)but-2-enoyl]-5,6,7,8-tetrahydropyrido [4′,3′:4,5]thieno[2,3-d]pyrimidin-4-amine]",200 to 1000 nM,200 to 1000 nM,< 200 nM
"CC(C)N(C/C=C/C(=O)N1CCc2c(sc3ncnc(Nc4cccc(Br)c4)c23)C1)C(C)C [Example 208, N-(3-bromophenyl)-7-[(2E)-4-(diisopropylamino)but-2-enoyl]-5,6,7,8-tetrahydropyrido [4′,3:4,5]thieno[2,3-d]pyrimidin-4-amine]",200 to 1000 nM,200 to 1000 nM,< 200 nM
"CC(C)N(C/C=C/C(=O)N1CCc2c(sc3ncnc(Nc4ccc(Cl)c(Cl)c4)c23)C1)C(C)C [Example 209, N-(3,4-dichlorophenyl)-7-[(2E)-4-(diisopropylamino)but-2-enoyl]-5,6,7,8-tetrahydropyrido [4′,3′:4,5]thieno[2,3-d]pyrimidin-4-amine]",200 to 1000 nM,200 to 1000 nM,< 200 nM

# The next lines start with the values.
IC50 (A431 cells),IC50 (H1975 cells),IC50 (N87),Structure (SMILES)
< 200 nM,< 200 nM,< 200 nM,"O=C(/C=C/CN1CCCC1)N1CCc2c(sc3ncnc(Nc4cccc(Br)c4)c23)C1 [Example 194, N-(3-bromophenyl)-7-[(2E)-4-pyrrolidin-1-ylbut-2-enoyl]-5,6,7,8-tetrahydropyrido [4′,3′:4,5]thieno[2,3-d]pyrimidin-4-amine]"
< 200 nM,< 200 nM,< 200 nM,"O=C(/C=C/CN1CCCCC1)N1CCc2c(sc3ncnc(Nc4ccc(Cl)c(Cl)c4)c23)C1 [Example 195, N-(3,4-dichlorophenyl)-7-[(2E)-4-piperidin-1-ylbut-2-enoyl]-5,6,7,8-tetrahydropyrido [4′,3′:4,5]thieno[2,3-d]pyrimidin-4-amine]"
< 200 nM,200 to 1000 nM,< 200 nM,"O=C(/C=C/CN1CCCCC1)N1CCc2c(sc3ncnc(Nc4cccc(Br)c4)c23)C1 [Example 196, N-(3-bromophenyl)-7-[(2E)-4-piperidin-1-ylbut-2-enoyl]-5,6,7,8-tetrahydropyrido [4′,3′:4,5]thieno[2,3-d]pyrimidin-4-amine]"
< 200 nM,200 to 1000 nM,< 200 nM,"CCN(CC)C/C=C/C(=O)N1CCc2c(sc3ncnc(Nc4cccc(Br)c4)c23)C1 [Example 197, N-(3-bromophenyl)-7-[(2E)-4-(diethylamino)but-2-enoyl]-5,6,7,8-tetrahydropyrido [4′,3′:4,5]thieno[2,3-d]pyrimidin-4-amine]"
< 200 nM,200 to 1000 nM,< 200 nM,"CN(C/C=C/C(=O)N1CCc2c(sc3ncnc(Nc4cccc(Br)c4)c23)C1)C(C)(C)C [Example 198, N-(3-bromophenyl)-7-{(2E)-4-[tert-butyl(methyl)amino]but-2-enoyl}-5,6,7,8-tetrahydropyrido [4′,3′:4,5]thieno[2,3-d]pyrimidin-4-amine]"
